Results: US11040028B2, “Penicinotam derivative, preparation method and use thereof” (OCEAN UNIVERSITY OF CHINA, priority 2017, dated 2021)
Read-outs that look alike come from different tables or passages of the source.

Tests used:
Format in all cases: cell-based
BHK-21 cells = assay: Anti-fibrosis activity test: inhibition of BHK-21 cell proliferation (CCK-8); settings: Mesocricetus auratus, BHK-21, 48 h
In short: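 Cells seeded at 2×10^4 cells/mL, allowed to adhere 24 hours, then exposed to graded compound concentrations in triplicate for 48 hours at 37° C, 5% CO2. CCK-8 added for 2 hours, absorbance read at 450 nm; inhibition versus blank control used to derive IC50. Pirfenidone served as positive control.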

[1] = system: human lung fibroblasts HFL1; assay: Anti-fibrosis activity test: inhibition of proliferation of human lung fibroblasts HFL1 (CCK-8); settings: Homo sapiens, HFL1, 48 h
In short: (§1)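 A CCK-8 proliferation assay was run: cells at 2×10^4 cells/mL, adherent for 24 h, then incubated 48 h at 37° C with compound dilutions. A450 was recorded 2 h after CCK-8 addition and converted to percent inhibition versus blank for IC50 determination.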

[2] = system: human hepatic stellate cells LX-2; assay: Anti-fibrosis activity test: inhibition of proliferation of human hepatic stellate cells LX-2 (CCK-8); settings: Homo sapiens, 48 h
In short: as §1

[3] = system: human fibrosarcoma cells HT-1080; assay: Anti-fibrosis activity test: inhibition of proliferation of human fibrosarcoma cells HT-1080 (CCK-8)
In short: as §1

[4] = system: human dermal fibroblasts CCC-ESF-1; assay: Anti-fibrosis activity test: inhibition of proliferation of human dermal fibroblasts CCC-ESF-1 (CCK-8); settings: Fibroblast
In short: as §1

[5] = system: human embryonic lung fibroblast IMR-90; assay: Anti-fibrosis activity test: inhibition of proliferation of human embryonic lung fibroblast IMR-90 (CCK-8)
In short: as §1

[6] = system: cardiac fibroblast RAT-iCell-C002; assay: Anti-fibrosis activity test: inhibition of proliferation of cardiac fibroblast RAT-iCell-C002 (CCK-8); settings: Cardiac fibroblast, 48 h
In short: as §1

[7] = system: mouse macrophages (RAW264.7); assay: Lipopolysaccharide-induced NO secretion in macrophages (Griess); settings: RAW264.7, LPS 1 μg/ml, a/b isomers given as first/second symbol, read-out: IC50 (μM), inhibition of lipopolysaccharide-induced NO secretion in macrophages
In short: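 Absorbance at 548 nm after Griess reagent addition to culture supernatant gave NO content; inhibition rate was derived relative to blank control. Cells were mouse RAW264.7 macrophages exposed to compounds and 1 μg/ml LPS for 24 hours.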

[8] = Homo sapiens, HT-1080, 48 h, HT-1080 cells, 48 h, CCK-8
[9] = Homo sapiens, CCC-ESF-1 cells, 48 h, CCK-8
[10] = Homo sapiens, IMR-90 cells, 48 h, CCK-8
[11] = CCK-8, 48 hours after administration
[12] = human lung fibroblasts HFL1, CCK-8, 48 hours
[13] = human hepatic stellate cells LX-2, CCK-8, 48 hours
[14] = Homo sapiens, HT-1080, 48 h, human fibrosarcoma cells HT-1080, CCK-8, 48 hours
[15] = human dermal fibroblasts CCC-ESF-1, CCK-8, 48 hours
[16] = human embryonic lung fibroblast IMR-90, CCK-8, 48 hours
[17] = cardiac fibroblast RAT-iCell-C002, CCK-8, 48 hours

SMILES	IC50 (BHK-21 cells; 48 h, CCK-8) [mM]	IC50 ([1]; HFL1 cells, 48 h, CCK-8) [mM]	IC50 ([2]; LX-2, 48 h, LX-2 cells, CCK-8) [mM]	IC50 [3, 8] [mM]	IC50 [4, 9] [mM]	IC50 [5, 10] [mM]	IC50 ([6]; RAT-iCell-C002 cells, CCK-8) [mM]	IC50 ([7]; Mus musculus, RAW264.7, 24 h) [µM]	IC50 (BHK-21 cells; [11]) [mM]	IC50 [1, 12] [mM]	IC50 [2, 13] [mM]	IC50 [3, 14] [mM]	IC50 [4, 15] [mM]	IC50 [5, 16] [mM]	IC50 [6, 17] [mM]	IC50 ([3]; human fibrosarcoma cells HT-1080, CCK-8, 48 hours) [mM]	IC50 ([7]; 24 hours) [µM]
Cc1ccc2c(O)c3c(nc2c1)C(=O)n1cccc1-3 [Compound 778b, 11-hydroxy-8-methyl-5H-pyrrolizino[2,1-b]quinolin-5-one]	0.05 to 5	0.05 to 5	0.05 to 5	0.05 to 5	0.05 to 5	0.05 to 5	0.05 to 5	1 to 10	–	–	–	–	–	–	–	–	–
N#Cc1cccc2c(OCc3cccc(F)c3)c3c(nc12)-c1cccn1C3=O [Compound 454b, 9-((3-fluorobenzyl)oxy)-10-oxo-10H-pyrrolizino[1,2-b]quinoline-5-carbonitrile]	–	–	–	–	–	–	–	1 to 10	0.05 to 5	0.05 to 5	0.05 to 5	0.05 to 5	0.05 to 5	0.05 to 5	0.05 to 5	–	–
N#Cc1cccc2c(OCc3ccc(F)cc3)c3c(nc12)-c1cccn1C3=O [Compound 449b, 9-((4-fluorobenzyl)oxy)-10-oxo-10H-pyrrolizino[1,2-b]quinoline-5-carbonitrile]	–	–	–	–	–	–	–	1 to 10	0.05 to 5	0.05 to 5	0.05 to 5	0.05 to 5	0.05 to 5	0.05 to 5	0.05 to 5	–	–
Cc1ccc(C)c2c(=O)c3c([nH]c12)C(=O)n1cccc1-3 [Compound 783a, 7,10-Dimethyl-5H-pyrrolizino[2,1-b]quinoline-5,11(6H)-dione]	< 0.05	0.05 to 5	0.05 to 5	0.05 to 5	0.05 to 5	0.05 to 5	0.05 to 5	1 to 10	–	–	–	–	–	–	–	–	–
O=C1c2c(nc3cccc(F)c3c2OCc2ccc(Cl)cc2)-c2cccn21 [Compound 471b, 9-((4-chlorobenzyl)oxy)-8-fluoro-10H-pyrrolizino[1,2-b]quinolin-10-one]	–	–	–	–	–	–	–	1 to 10	0.05 to 5	0.05 to 5	0.05 to 5	0.05 to 5	0.05 to 5	0.05 to 5	0.05 to 5	–	–
Cc1ccc2[nH]c3c(c(=O)c2c1)-c1cccn1C3=O [Compound 777a, 9-Methyl-5H-pyrrolizino[2,1-b]quinoline-5,11(6H)-dione]	< 0.05	0.05 to 5	0.05 to 5	0.05 to 5	0.05 to 5	0.05 to 5	0.05 to 5	10 to 50	–	–	–	–	–	–	–	–	–
CC(C)=CCn1c2c(c(=O)c3cc(F)c(N4CCNCC4)cc31)C(=O)n1cccc1-2 [Compound 354a, 7-Fluoro-4-(3-methylbut-2-en-1-yl)-6-(piperazin-1-yl)-9H-pyrrolizino[1,2-b]quinoline-9,10(4H)-dione]	–	–	–	–	–	–	–	1 to 10	0.05 to 5	0.05 to 5	5 to 20	0.05 to 5	0.05 to 5	0.05 to 5	< 0.05	–	–
O=C1c2c(c(=O)c3ccccc3n2CCCCN2CCOCC2)-c2cccn21 [Compound 789a, 6-(4-Morpholinobutyl)-5H-pyrrolizino[2,1-b]quinoline-5,11(6H)-dione]	0.05 to 5	0.05 to 5	0.05 to 5	0.05 to 5	0.05 to 5	0.05 to 5	0.05 to 5	1 to 10	–	–	–	–	–	–	–	–	–
N#Cc1c(N2CCNCC2)ccc2c(=O)c3c(n(Cc4ccc(F)cc4)c12)-c1cccn1C3=O [Compound 482a, 4-(4-Fluorobenzyl)-9,10-dioxo-6-(piperazin-1-yl)-4,10-dihydro-9H-pyrrolizino[1,2-b]quinoline-5-carbonitrile]	–	–	–	–	–	–	–	–	0.05 to 5	0.05 to 5	0.05 to 5	–	0.05 to 5	0.05 to 5	0.05 to 5	5 to 20	10 to 50
O=C1c2c(nc3cc(N4CCNCC4)c(C(F)(F)F)cc3c2O)-c2cccn21 [Compound 397b, 9-hydroxy-6-(piperazin-1-yl)-7-(trifluoromethyl)-10H-pyrrolizino[1,2-b]quinolin-10-one]	–	–	–	–	–	–	–	0.1 to 1	0.05 to 5	0.05 to 5	0.05 to 5	0.05 to 5	0.05 to 5	0.05 to 5	0.05 to 5	–	–
O=C1c2c(n(Cc3ccc(F)cc3)c3cc(F)ccc3c2=O)-c2cccn21 [Compound 490a, 6-Fluoro-4-(4-fluorobenzyl)-9H-pyrrolizino[1,2-b]quinoline-9,10(4H)-dione]	–	–	–	–	–	–	–	10 to 50	0.05 to 5	0.05 to 5	0.05 to 5	0.05 to 5	0.05 to 5	0.05 to 5	< 0.05	–	–
O=C1c2c(nc3ccc(Cl)cc3c2O)-c2cccn21 [Compound 180b, 7-chloro-9-hydroxy-10H-pyrrolizino[1,2-b]quinolin-10-one]	–	–	–	–	–	–	–	1 to 10	0.05 to 5	0.05 to 5	0.05 to 5	0.05 to 5	0.05 to 5	0.05 to 5	0.05 to 5	–	–
O=C1c2nc3ccccc3c(OCCCCN3CCCCC3)c2-c2cccn21 [Compound 788b, 11-(4-(piperidin-1-yl)butoxy)-5H-pyrrolizino[2,1-b]quinolin-5-one]	0.05 to 5	0.05 to 5	0.05 to 5	0.05 to 5	0.05 to 5	0.05 to 5	0.05 to 5	1 to 10	–	–	–	–	–	–	–	–	–
N#Cc1cccc2c(=O)c3c(n(Cc4cccc(F)c4)c12)-c1cccn1C3=O [Compound 454a, 4-(3-Fluorobenzyl)-9,10-dioxo-4,10-dihydro-9H-pyrrolizino[1,2-b]quinoline-5-carbonitrile]	–	–	–	–	–	–	–	0.1 to 1	0.05 to 5	0.05 to 5	0.05 to 5	0.05 to 5	0.05 to 5	0.05 to 5	0.05 to 5	–	–
N#Cc1ccc2nc3c(c(Oc4ccc(Cl)cc4)c2c1)C(=O)n1cccc1-3 [Compound 210b, 9-(4-chlorophenoxy)-10-oxo-10H-pyrrolizino[1,2-b]quinoline-7-carbonitrile]	–	–	–	–	–	–	–	1 to 10	0.05 to 5	0.05 to 5	0.05 to 5	0.05 to 5	0.05 to 5	0.05 to 5	0.05 to 5	–	–
O=C1c2c(n(Cc3ccc(Cl)cc3)c3cccc(C(F)(F)F)c3c2=O)-c2cccn21 [Compound 465a, 4-(4-Chlorobenzyl)-8-(trifluoromethyl)-9H-pyrrolizino[1,2-b]quinoline-9,10(4H)-dione]	–	–	–	–	–	–	–	0.1 to 1	0.05 to 5	0.05 to 5	0.05 to 5	0.05 to 5	0.05 to 5	0.05 to 5	0.05 to 5	–	–
Cc1cccc2c(=O)c3c([nH]c12)C(=O)n1cccc1-3 [Compound 779a, 7-Methyl-5H-pyrrolizino[2,1-b]quinoline-5,11(6H)-dione]	0.05 to 5	0.05 to 5	0.05 to 5	0.05 to 5	0.05 to 5	0.05 to 5	0.05 to 5	10 to 50	–	–	–	–	–	–	–	–	–
O=C1c2c(nc3cccc(O)c3c2O)-c2cccn21 [Compound 470b, 8,9-dihydroxy-10H-pyrrolizino[1,2-b]quinolin-10-one]	–	–	–	–	–	–	–	1 to 10	0.05 to 5	0.05 to 5	0.05 to 5	0.05 to 5	0.05 to 5	0.05 to 5	0.05 to 5	–	–
O=C1c2c(nc3c(Cl)cccc3c2OCc2ccc(F)cc2)-c2cccn21 [Compound 481b, 5-chloro-9-((4-fluorobenzyl)oxy)-10H-pyrrolizino[1,2-b]quinolin-10-one]	–	–	–	–	–	–	–	1 to 10	0.05 to 5	0.05 to 5	0.05 to 5	0.05 to 5	0.05 to 5	0.05 to 5	0.05 to 5	–	–
O=C1c2nc3ccccc3c(OCCCN3CCCCC3)c2-c2cccn21 [Compound 786b, 11-(3-(piperidin-1-yl)propoxy)-5H-pyrrolizino[2,1-b]quinolin-5-one]	0.05 to 5	0.05 to 5	0.05 to 5	0.05 to 5	0.05 to 5	0.05 to 5	0.05 to 5	1 to 10	–	–	–	–	–	–	–	–	–
